Molecular target: T1, human adenosine A2b receptor (Homo sapiens, UniProt P29275)
T1 sequence (P29275 1-332): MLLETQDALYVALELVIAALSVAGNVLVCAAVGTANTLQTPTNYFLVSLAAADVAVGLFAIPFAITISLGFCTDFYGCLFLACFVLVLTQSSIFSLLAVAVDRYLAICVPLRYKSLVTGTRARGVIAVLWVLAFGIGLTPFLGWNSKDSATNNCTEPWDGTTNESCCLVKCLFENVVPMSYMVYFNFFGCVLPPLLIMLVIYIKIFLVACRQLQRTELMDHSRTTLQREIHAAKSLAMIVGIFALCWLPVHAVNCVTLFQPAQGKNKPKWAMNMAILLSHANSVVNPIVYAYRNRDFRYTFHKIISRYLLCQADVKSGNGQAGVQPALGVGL
Assay: Cellular in vitro reporter gene test for A2b receptor activity (antagonism of NECA)
Type: cell-based
Set-up: expressed in transfected cells; host or cells: CHO-K1 (Chinese hamster ovary) with CRE-luciferase reporter
Conditions: recombinant CHO-K1 cells, CRE-luciferase reporter, co-incubation with EC50 concentration of NECA, 3 hours
How it was run: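 Antagonism measured as block of NECA-induced, cAMP/CRE-dependent luciferase expression in recombinant A2b CHO-K1 cells. NECA used at the EC50 set in a pre-experiment on each test day; luminescence detected after 3 h. Reported as IC50, partly averaged and rounded to two significant figures.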

SMILES | IC50
Cc1c(Cn2nc[nH]c2=O)sc2c1c(=O)n(C1(C)CC1)c(=O)n2CCC(F)(F)F [Example 60, 5-Methyl-3-(1-methylcyclopropyl)-6-[(5-oxo-4,5-dihydro-1H-1,2,4-triazol-1-yl)methyl]-1-(3,3,3-trifluoropropyl)thieno[2,3-d]pyrimidine-2,4(1H,3H)-dione] | 15 nM
COCCn1c(=O)n([C@H]2C[C@H](OC)C2)c(=O)c2c(C)c(CN3CCNC3=O)sc21 [Example 149, 3-(trans-3-Methoxycyclobutyl)-1-(2-methoxyethyl)-5-methyl-6-[(2-oxoimidazolidin-1-yl)methyl]thieno[2,3-d]pyrimidine-2,4(1H,3H)-dione] | 82 nM
CCCCn1c(=O)n(C2(C)CC2)c(=O)c2c(C)c(Cn3nc[nH]c3=O)sc21 [Example 55, 1-Butyl-5-methyl-3-(1-methylcyclopropyl)-6-[(5-oxo-4,5-dihydro-1H-1,2,4-triaiazol-1-yl)methyl]thieno[2,3-d]pyrimidine-2,4(1H,3H)-dione] | 49 nM
COCCn1c(=O)n(C2CC2C(F)(F)F)c(=O)c2c(C)c(Cn3nc[nH]c3=O)sc21 (single isomer, unassigned) [Example 299, 1-(2-Methoxyethyl)-5-methyl-6-[(5-oxo-4,5-dihydro-H-1,2,4-triazol-1-yl)methyl]-3-[2-(trifluoromethyl)cyclopropyl]thieno[2,3-d]pyrimidine-2,4(1H,3H)-dione] | 220 nM
CCC1(n2c(=O)c3c(C)c(Cn4nc[nH]c4=O)sc3n(CCOC)c2=O)CC1 [Example 109, 3-(1-Ethylcyclopropyl)-1-(2-methoxyethyl)-5-methyl-6-[(5-oxo-4,5-dihydro-H-1,2,4-triazol-1-yl)methyl]thieno[2,3-d]pyrimidine-2,4(1H,3H)-dione] | 640 nM
Cc1c(Cn2nc[nH]c2=O)sc2c1c(=O)n(C1CC1)c(=O)n2CC1CCCC1(F)F (single isomer, unassigned) [Example 207, 3-Cyclopropyl-1-[(2,2-difluorocyclopentyl)methyl]-5-methyl-6-[(5-oxo-4,5-dihydro-1H-1,2,4-triazol-1-yl)methyl]thieno[2,3-d]pyrimidine-2,4(1H,3H)-dione] | 910 nM
Cc1c(CN2CCNC2=O)sc2c1c(=O)n(C1CC1C)c(=O)n2CCCF (single isomer, unassigned) [Example 92, 1-(3-Fluoropropyl)-5-methyl-3-(2-methylcyclopropyl)-6-[(2-oxoimidazolidin-1-yl)methyl]thieno[2,3-d]pyrimidine-2,4(1H,3H)-dione] | 2.8 nM
COCCn1c(=O)n(C2(C)CCC2)c(=O)c2c(C)c(Cn3nc[nH]c3=O)sc21 [Example 143, 1-(2-Methoxyethyl)-5-methyl-3-(1-methylcyclobutyl)-6-[(5-oxo-4,5-dihydro-H-1,2,4-triazol-1-yl)methyl]thieno[2,3-d]pyrimidine-2,4(1H,3H)-dione] | 880 nM
Cc1c(CN2CCNC2=O)sc2c1c(=O)n(C1(C)CC1)c(=O)n2C [Example 52, 1,5-Dimethyl-3-(1-methylcyclopropyl)-6-[(2-oxoimidazolidin-1-yl)methyl]thieno[2,3-d]pyrimidine-2,4(1H,3H)-dione] | 19 nM
Cc1c(CN2CCNC2=O)sc2c1c(=O)n(C1CC1C)c(=O)n2CC(F)(F)F (single isomer, unassigned) [Example 238, 5-Methyl-3-(2-methylcyclopropyl)-6-[(2-oxoimidazolidin-1-yl)methyl]-1-(2,2,2-trifluoroethyl)thieno[2,3-d]pyrimidine-2,4(1H,3H)-dione] | 24 nM
Cc1c(CN2CCNC2=O)sc2c1c(=O)n(C1CC1C)c(=O)n2CCCF (single isomer, unassigned) [Example 91, 1-(3-Fluoropropyl)-5-methyl-3-(2-methylcyclopropyl)-6-[(2-oxoimidazolidin-1-yl)methyl]thieno[2,3-d]pyrimidine-2,4(1H,3H)-dione] | 20 nM
Cc1c(CN2CCNC2=O)sc2c1c(=O)n(C1(C)CC1)c(=O)n2CCOC(C)C [Example 79, 1-(2-Isopropoxyethyl)-5-methyl-3-(1-methylcyclopropyl)-6-[(2-oxoimidazolidin-1-yl)methyl]thieno[2,3-d]pyrimidine-2,4(1H,3H)-dione] | 110 nM
Cc1c(Cn2nc[nH]c2=O)sc2c1c(=O)n([C@H]1C[C@@H]1C)c(=O)n2CC1CC(F)(F)C1 [Example 328, 1-[(3,3-Difluorocyclobutyl)methyl]-5-methyl-3-[(1S,2S)-2-methylcyclopropyl]-6-[(5-oxo-4,5-dihydro-1H-1,2,4-triazol-1-yl)methyl]thieno[2,3-d]pyrimidine-2,4(1H,3H)-dione] | 4.9 nM
CCCCn1c(=O)n(C2(C)CC2)c(=O)c2c(C)c(CN3CCNC3=O)sc21 [Example 54, 1-Butyl-5-methyl-3-(1-methylcyclopropyl)-6-[(2-oxoimidazolidin-1-yl)methyl]thieno[2,3-d]pyrimidine-2,4(1H,3H)-dione] | 7.5 nM
COC(=O)N=C1NCCN1Cc1sc2c(c1C)c(=O)n(C1COC1)c(=O)n2CCC(F)(F)F [Example 132, Methyl [1-{[5-methyl-3-(oxetan-3-yl)-2,4-dioxo-1-(3,3,3-trifluoropropyl)-1,2,3,4-tetrahydrothieno[2,3-d]pyrimidin-6-yl]methyl}imidazolidin-2-ylidene]carbamate] | 11 nM
Cc1c(CN2CCNC2=O)sc2c1c(=O)n(C1CC1C)c(=O)n2CCF (single isomer, unassigned) [Example 232, 1-(2-Fluoroethyl)-5-methyl-3-(2-methylcyclopropyl)-6-[(2-oxoimidazolidin-1-yl)methyl]thieno[2,3-d]pyrimidine-2,4(1H,3H)-dione] | 0.86 nM
COCCn1c(=O)n(C2CC2(C)C)c(=O)c2c(C)c(CN3CCNC3=O)sc21 (single isomer, unassigned) [Example 105, 3-(2,2-Dimethylcyclopropyl)-1-(2-methoxyethyl)-5-methyl-6-[(2-oxoimidazolidin-1-yl)methyl]thieno[2,3-d]pyrimidine-2,4(1H,3H)-dione] | 92 nM
Cc1c(Cn2nc[nH]c2=O)sc2c1c(=O)n([C@H]1C[C@@H]1C)c(=O)n2CCCF [Example 322, 1-(3-Fluoropropyl)-5-methyl-3-[(1S,2S)-2-methylcyclopropyl]-6-[(5-oxo-4,5-dihydro-H-1,2,4-triazol-1-yl)methyl]thieno[2,3-d]pyrimidine-2,4(1H,3H)-dione] | 14 nM
Cc1c(CN2CCNC2=NC#N)sc2c1c(=O)n(C1CC1)c(=O)n2CCC(F)(F)F [Example 11, [1-{[3-Cyclopropyl-5-methyl-2,4-dioxo-1-(3,3,3-trifluoropropyl)-1,2,3,4-tetrahydrothieno[2,3-d]pyrimidin-6-yl]methyl}imidazolidin-2-ylidene]cyanamide] | 3.3 nM
Cc1c(Cn2nc[nH]c2=O)sc2c1c(=O)n(C1CC1)c(=O)n2CC1CCC1(F)F (single isomer, unassigned; enantiomer 1) [Example 202, 3-Cyclopropyl-1-[(2,2-difluorocyclobutyl)methyl]-5-methyl-6-[(5-oxo-4,5-dihydro-1H-1,2,4-triazol-1-yl)methyl]thieno[2,3-d]pyrimidine-2,4(1H,3H)-dione (enantiomer 1)] | 140 nM
CCC1CC1n1c(=O)c2c(C)c(Cn3nc[nH]c3=O)sc2n(CCOC)c1=O (racemic) [Example 303] | 71 nM

From US20200016159A1, “N3-CYCLICALLY SUBSTITUTED THIENOURACILS AND USE THEREOF” (Bayer Aktiengesellschaft, priority 2016, published 2020)
